System: Plasmodium berghei
Assay: Luciferase/luciferin-expressing antifolate-resistant parasites were used to infect a culture of HepG2 cells that were pre-incubated with compounds. Infected hepatocytes emit light due to the luciferase reaction. Assay results are presented as the percent inhibition of light emission compared to control. […]
Format: functional
Conditions: sporozoite; for IC90: read-out: LUCIFERASE INFECTION ASSAY - IC90

SMILES | IC90 | other results
OC(c1ccc(Cl)c(F)c1)c1nc(-c2cccc(C(F)(F)F)c2)c[nH]1 (stereo not given) | > 8.9 µM | IC50 (FFLUC_HILL_SLOPE 12.1, FFLUC_R_SQUARED 0.0756, read-out: LUCIFERASE INFECTION ASSAY - IC50): > 8.9 µM
Cc1cc(-c2onc(C)c2C(=O)Sc2ccccc2)no1 | > 11 µM | IC50 (FFLUC_HILL_SLOPE 12.1, FFLUC_R_SQUARED 0.567, PBLUC_HILL_SLOPE 1.05, PBLUC_R_SQUARED 0.41, read-out: LUCIFERASE INFECTION ASSAY - IC50): > 11 µM
Oc1c(C(Nc2ncccn2)c2ccc(F)cc2)ccc2cccnc12 (stereo not given) | 3.55 µM | IC50 (FFLUC_HILL_SLOPE 12.3, FFLUC_R_SQUARED 0.0325, HEPG2TOX_HILL_SLOPE 1.16, HEPG2TOX_R_SQUARED 0.848, PBLUC_HILL_SLOPE 14, PBLUC_R_SQUARED 0.306, read-out: LUCIFERASE INFECTION ASSAY - IC50): 3.03 µM
CCOC(=O)c1c(C)[nH]c(C(=O)Nc2nc(-c3c(C)cc(C)cc3C)cs2)c1C | 9.66 µM | IC50 (FFLUC_HILL_SLOPE 12.1, FFLUC_R_SQUARED 0.461, HEPG2TOX_HILL_SLOPE 1.22, HEPG2TOX_R_SQUARED 0.98, PBLUC_HILL_SLOPE 1.25, PBLUC_R_SQUARED 0.783, read-out: LUCIFERASE INFECTION ASSAY - IC50): 1.65 µM
O=C(COc1ccccc1C(=O)Nc1ccccc1)NC(c1ccc(F)cc1)c1cccs1 (stereo not given) | > 10 µM | IC50 (FFLUC_HILL_SLOPE 12.2, FFLUC_R_SQUARED 0.17, PBLUC_HILL_SLOPE 2.56, PBLUC_R_SQUARED 0.393, read-out: LUCIFERASE INFECTION ASSAY - IC50): 7.16 µM
Cc1cccc(N/N=C2\C=NN=C2c2ccc(Br)cc2)c1 | > 9.67 µM | IC50 (FFLUC_HILL_SLOPE 12.3, FFLUC_R_SQUARED 0.435, HEPG2TOX_HILL_SLOPE 0.345, HEPG2TOX_R_SQUARED 0.819, PBLUC_HILL_SLOPE 10.9, PBLUC_R_SQUARED 0.46, read-out: LUCIFERASE INFECTION ASSAY - IC50): 9.21 µM
c1ccc2c3c(ccc2c1)CCc1ccc2ccccc2c1-3 | > 11.8 µM | IC50 (FFLUC_HILL_SLOPE 12.1, FFLUC_R_SQUARED 0.622, read-out: LUCIFERASE INFECTION ASSAY - IC50): > 11.8 µM
COc1ccc(N(Cc2cn(-c3ccccc3)nc2-c2ccc(Cl)cc2)S(=O)(=O)c2ccccc2)cc1 | > 10 µM | IC50 (FFLUC_HILL_SLOPE 12.1, FFLUC_R_SQUARED 0.616, PBLUC_HILL_SLOPE 4, PBLUC_R_SQUARED 0.331, read-out: LUCIFERASE INFECTION ASSAY - IC50): 7.59 µM
CCN(C(=O)CSc1nc2ccccc2c(=O)n1-c1ccc(C(C)C)cc1)c1cccc2ccccc12 | 9.59 µM | IC50 (FFLUC_HILL_SLOPE 12.2, FFLUC_R_SQUARED 0.564, PBLUC_HILL_SLOPE 2.95, PBLUC_R_SQUARED 0.421, read-out: LUCIFERASE INFECTION ASSAY - IC50): 4.55 µM
O=c1c2c3c(sc2nc(SCc2cc(=O)n4ccsc4n2)n1-c1ccccc1C(F)(F)F)CCCCC3 | > 10 µM | IC50 (FFLUC_HILL_SLOPE 12.2, FFLUC_R_SQUARED 0.743, read-out: LUCIFERASE INFECTION ASSAY - IC50): > 10 µM
Cc1c(OCC(=O)NCc2ccccn2)ccc2c1oc(=O)c1ccccc12 | > 8.81 µM | IC50 (FFLUC_HILL_SLOPE 12.1, FFLUC_R_SQUARED 0.777, PBLUC_HILL_SLOPE 13, PBLUC_R_SQUARED 0.252, read-out: LUCIFERASE INFECTION ASSAY - IC50): 8.19 µM
COc1ccc(/N=c2\scc(-c3ccc(OC(F)F)cc3)n2/N=C/c2ccccc2[N+](=O)[O-])cc1 | 7.35 µM | IC50 (FFLUC_HILL_SLOPE 12.1, FFLUC_R_SQUARED 0.633, PBLUC_HILL_SLOPE 109, PBLUC_R_SQUARED 0.183, read-out: LUCIFERASE INFECTION ASSAY - IC50): 7.2 µM
COc1cc(N(CC(=O)Nc2ccc(Cl)cc2)S(=O)(=O)c2ccc(Cl)cc2)c(Cl)cc1Cl | > 6.18 µM | IC50 (FFLUC_HILL_SLOPE 12.3, FFLUC_R_SQUARED 0.349, HEPG2TOX_HILL_SLOPE 3.41, HEPG2TOX_R_SQUARED 0.407, PBLUC_HILL_SLOPE 12, PBLUC_R_SQUARED 0.0202, read-out: LUCIFERASE INFECTION ASSAY - IC50): 5.6 µM
CC(C)(C)c1ccc(-c2nnc(SCc3ccc([N+](=O)[O-])cc3)n2-c2cccc(C(F)(F)F)c2)cc1 | > 6.44 µM | IC50 (FFLUC_HILL_SLOPE 12, FFLUC_R_SQUARED 0.571, HEPG2TOX_HILL_SLOPE 0.228, HEPG2TOX_R_SQUARED 0.238, read-out: LUCIFERASE INFECTION ASSAY - IC50): > 6.44 µM
CC(C)(C)c1cc(C(=O)OCC(=O)N2CCCc3ccccc32)cc(C(C)(C)C)c1 | 9.87 µM | IC50 (FFLUC_HILL_SLOPE 12.2, FFLUC_R_SQUARED 0.329, PBLUC_HILL_SLOPE 3.02, PBLUC_R_SQUARED 0.491, read-out: LUCIFERASE INFECTION ASSAY - IC50): 4.77 µM
CCOc1ccc(-n2c(SC(C)C(=O)c3ccc(C(C)C)cc3C(C)C)nnc2-c2c[nH]c3ccccc23)cc1 (stereo not given) | > 10 µM | IC50 (FFLUC_HILL_SLOPE 12.2, FFLUC_R_SQUARED 0.489, PBLUC_HILL_SLOPE 1.92, PBLUC_R_SQUARED 0.281, read-out: LUCIFERASE INFECTION ASSAY - IC50): 5.8 µM
Cc1ccc(NS(=O)(=O)c2ccc(C(=O)Nc3ncccc3O)cc2)cc1C | 1.88 µM | IC50 (FFLUC_HILL_SLOPE 12.3, FFLUC_R_SQUARED 0.189, HEPG2TOX_HILL_SLOPE 11.2, HEPG2TOX_R_SQUARED 0.187, PBLUC_HILL_SLOPE 1.78, PBLUC_R_SQUARED 0.764, read-out: LUCIFERASE INFECTION ASSAY - IC50): 0.549 µM
COc1cc2c(cc1OC)C(c1cccs1)N(C(=O)CC1CCCC1)CC2 (stereo not given) | > 10 µM | IC50 (FFLUC_HILL_SLOPE 12.1, FFLUC_R_SQUARED 0.331, HEPG2TOX_HILL_SLOPE 1.22, HEPG2TOX_R_SQUARED 0.987, PBLUC_HILL_SLOPE 1.62, PBLUC_R_SQUARED 0.49, read-out: LUCIFERASE INFECTION ASSAY - IC50): 2.88 µM
CCCCn1c(N)c(N(C)CC(=O)Nc2scc(-c3ccccc3)c2C(=O)OCC)c(=O)[nH]c1=O | 8.26 µM | IC50 (FFLUC_HILL_SLOPE 12.3, FFLUC_R_SQUARED 0.419, PBLUC_HILL_SLOPE 4.64, PBLUC_R_SQUARED 0.375, read-out: LUCIFERASE INFECTION ASSAY - IC50): 5.15 µM
O=C1C(=O)N(Cc2ccccc2Cl)c2c1cccc2C(F)(F)F | 3.7 µM | IC50 (FFLUC_HILL_SLOPE 12, FFLUC_R_SQUARED 0.566, HEPG2TOX_HILL_SLOPE 13.8, HEPG2TOX_R_SQUARED 0.966, PBLUC_HILL_SLOPE 12.2, PBLUC_R_SQUARED 0.654, read-out: LUCIFERASE INFECTION ASSAY - IC50): 3.09 µM
Nn1c(SCc2cc(F)cc3c2OC(c2ccccc2)OC3)nnc1-c1ccc(OC(F)F)cc1 (stereo not given) | > 10 µM | IC50 (FFLUC_HILL_SLOPE 12.2, FFLUC_R_SQUARED 0.768, read-out: LUCIFERASE INFECTION ASSAY - IC50): > 10 µM
O=C(CCc1ccc(-c2ccccc2)o1)Nc1nc(-c2ccccn2)cs1 | > 10 µM | IC50 (FFLUC_HILL_SLOPE 12.1, FFLUC_R_SQUARED 0.705, read-out: LUCIFERASE INFECTION ASSAY - IC50): > 10 µM
Cc1ccc(N2C(=O)/C(=C\Nc3cc(Cl)ccc3[N+](=O)[O-])c3ccccc3C2=O)c(C)c1 | > 10 µM | IC50 (FFLUC_HILL_SLOPE 12.2, FFLUC_R_SQUARED 0.8, read-out: LUCIFERASE INFECTION ASSAY - IC50): > 10 µM
CCc1cccc(CC)c1N(C(C)=O)c1nc(/C=C/C(=O)c2ccc3c(c2)OCCO3)cs1 | 3.81 µM | IC50 (FFLUC_HILL_SLOPE 12.1, FFLUC_R_SQUARED 0.466, HEPG2TOX_HILL_SLOPE 15.2, HEPG2TOX_R_SQUARED 0.81, PBLUC_HILL_SLOPE 12.5, PBLUC_R_SQUARED 0.644, read-out: LUCIFERASE INFECTION ASSAY - IC50): 3.2 µM
CC(OC(=O)[C@@H](Nc1ccc(C(F)(F)F)cc1Cl)C(C)C)C(=O)NC(=O)NC1CCCCC1 (stereo not given in full) | 6.57 µM | IC50 (FFLUC_HILL_SLOPE 12, FFLUC_R_SQUARED 0.576, PBLUC_HILL_SLOPE 4.18, PBLUC_R_SQUARED 0.859, read-out: LUCIFERASE INFECTION ASSAY - IC50): 3.88 µM
CC1=C(C(=O)OCc2ccccc2)C(c2ccccc2OC(C)C)CC(=O)N1 (stereo not given) | > 8.7 µM | IC50 (FFLUC_HILL_SLOPE 12.1, FFLUC_R_SQUARED 0.679, read-out: LUCIFERASE INFECTION ASSAY - IC50): > 8.7 µM
O=C(COc1ccc(Cl)cc1Br)c1ccc[nH]1 | > 10 µM | IC50 (FFLUC_HILL_SLOPE 12.1, FFLUC_R_SQUARED 0.341, HEPG2TOX_HILL_SLOPE 8.8, HEPG2TOX_R_SQUARED 0.689, read-out: LUCIFERASE INFECTION ASSAY - IC50): > 10 µM
Cc1ccc(Br)c(NS(=O)(=O)c2cccc(C(=O)Nc3cccc4c[nH]nc34)c2)c1 | > 10 µM | IC50 (FFLUC_HILL_SLOPE 12.1, FFLUC_R_SQUARED 0.239, PBLUC_HILL_SLOPE 20.2, PBLUC_R_SQUARED 0.144, read-out: LUCIFERASE INFECTION ASSAY - IC50): 9.98 µM
Clc1ccccc1CN(Cc1nc2ccccc2[nH]1)Cc1nc2ccccc2[nH]1 | 4.32 µM | IC50 (FFLUC_HILL_SLOPE 12.2, FFLUC_R_SQUARED 0.134, HEPG2TOX_HILL_SLOPE 11.4, HEPG2TOX_R_SQUARED 0.932, PBLUC_HILL_SLOPE 13.3, PBLUC_R_SQUARED 0.326, read-out: LUCIFERASE INFECTION ASSAY - IC50): 3.67 µM
COc1ccc(-c2ccnn2-c2nc3ccccc3nc2C(F)(F)F)cc1 | 8.87 µM | IC50 (FFLUC_HILL_SLOPE 12, FFLUC_R_SQUARED 0.622, HEPG2TOX_HILL_SLOPE 8.32, HEPG2TOX_R_SQUARED 0.411, PBLUC_HILL_SLOPE 4.15, PBLUC_R_SQUARED 0.462, read-out: LUCIFERASE INFECTION ASSAY - IC50): 5.22 µM

From ChEMBL document CHEMBL4483862, “Open-source discovery of chemical leads for next-generation chemoprotective antimalarials” (2018)
